Test [1] concerns P. berghei blood stages. The test can be described thus: Plasmodium berghei in vitro drug luminescence (ITDL) assay. In kind it is cell-based. Particulars: read-out: EC50, growth inhibition of P. berghei blood stages. As for the experimental part: The compounds were received as 10 mM stocks dissolved in 100% DMSO. These stocks were stored at −20° C. The DMSO stock compounds were diluted in complete culture medium (RPMI1640 medium supplemented with 20% FBS from Gibco® heat-inactivated and Neomycin stock solution of 10,000 IU/mL from Sigma-Aldrich®) for use in the Plasmodium berghei in vitro drug luminescence assay. For initial testing, the compounds were used at the following concentration: 0.01 μM, 0.1 μM, 1 μM and 10 μM; in triplicate point to determine the inhibition curve for each compound.
This assay measures the in vitro development of P. berghei ring stage into mature schizonts in the presence of inhibitors/drugs. The Swiss-CD1 female mice were infected with the GFP-luc parasite line. The GFP-luc parasite line allows determination of the luciferase activity in the cultured mature schizonts, which is directly proportional to the number of schizonts. When the parasitemia reaches 1-3%, the RBCs were collected from the infected mice and used to perform the assay. The susceptibility of blood stages parasites was determined in the presence of standard GST inhibitors and the TCAMS compounds identified from the VLS. […] The standard GST inhibitors were weighed and dissolved in 100% DMSO to prepare the stock solution. Dilutions of the standard GST inhibitors were freshly prepared in complete culture medium (RPMI1640 medium supplemented with 20% FBS from Gibco® heat-inactivated and Neomycin stock solution of 10,000 IU/mL from Sigma-Aldrich®) for each assay. The dilutions of the inhibitors were added to the wells in triplicates, 50 μL per well. Chloroquine diphosphate salt from Sigma-Aldrich® was used as a control (at a concentration of 100 nM) for complete inhibition of blood stage development. Further, infected blood was collected from one mouse by cardiac puncture under anesthesia early in the morning (between 9:00-10:[…]). The blood was added to a 50 mL tube containing 5 mL complete culture medium supplemented with 300 μL heparin stock solution (25,000 U/mL). The blood was centrifuged for 8 min at 450×g and the supernatant was removed. The blood was resuspended in a complete culture medium comprising a concentration of 2% (v/v). In the next step, 50 μL of the blood suspension was added in each well containing the inhibitors dilutions. The 96-well black culture plates containing the infected blood solution were placed into a candle jar. The candle jar was carefully flushed with a gas mixture of 5% CO2, 5% O2, 90% N2 using a 0.22 μm filter unit connected to the gas hose for 2 minutes. The lid was tightly closed immediately after gassing. The infected blood suspension was incubated at 37° C. with continuous agitation (enough to keep the cells suspended) for 24 hours allowing the ring stages to develop into the mature schizonts. After the culture period, the schizonts were evaluated by microscopic examination of Diff Quick-stained thin blood smears. The 96-well plate was centrifuged at 1,000×g for 5 minutes. The supernatant was removed using a syringe needle on those sides of the wells without red blood cell after spinning. The luciferase activity was measured in cultured mature schizonts using the Luciferase Assay System Kit from Promega (Cat. No. E1500). The RBCs were lysed by adding 50 μL of 1× cell culture lysis reagent into each well. The plate was shaken for 5 minutes to assure complete lysis. Afterward, 50 μL of the luciferase assay reagent was added. The luminescence was measured using the SpectraMax® M3 Microplate Reader (Molecular Devices). […] The data was analyzed and used to generate standard in vitro inhibition curves, and EC50 values of each compound were calculated. Preliminary data analyses were performed using Microsoft Excel and the effective concentration (50% of the maximal inhibition; EC50 values) were calculated using GraphPad Prism software (Graph-Pad software, Inc., US, Mac Version 6).

In another test the target is P. berghei GST (pbGST) (Plasmodium berghei, UniProt A0A509AJX5). Description: Inhibition of GST activity (CDNB/GSH, 340 nm) in P. berghei protein extracts. The class given is biochemical. Particulars: for inhibitory activity on pbGST: 1, 10 and 50 μM, duplicate (n=2), more marked effect at 50 μM. The method, then:
Glutathione S-transferase Activity in Blood Stage Parasites: The parasite extracts were prepared as the method described in the Protein for Enzymatic Activity. The enzymatic activity was determined spectroscopically using the chromogenic substrate 1-chloro-2,4-dinitrobenzene (CDNB) from Sigma-Aldrich®. The GST activity was assayed at 25° C. in P. berghei protein extracts by monitoring the increase in absorbance at 340 nm on the basis of the extinction coefficient for the product S-(2,4-dinitrophenyl) glutathione (ε340 nm=9.6 mM^−1 cm^−1). The absorbance was measured in a 96-well plate (UV flat bottom Microtiter®, from Thermo Scientific) using the SpectraMax® M3 Microplate Reader (Molecular Devices). The parasite extract (0.65 mg/mL) and 1 mM CDNB were added to a 100 mM potassium phosphate (pH 6.5) buffer. The reaction was started by adding 1 mM GSH. To detect any residual GST activity associated with the parasite extract, blank reactions as controls (no GSH) were included. The Enzyme activity is reported as units (micromole of GSH/min)/mg of protein. This assay was standardized using the human placenta GST from Sigma-Aldrich® (Cat No. G8642) and used as positive control.
The compounds stock solutions were prepared in 100% DMSO. […] The half maximal inhibitory concentration (IC50) values were calculated using the non-linear regression function for sigmoidal dose-response (variable slope). Inhibition curves of pbGST was done in two independent experiments with one replicate each (n=2) whereas the inhibition curves of hGST was determined in three independent experiments in triplicate (n=9). […] GraphPad Prism software (Graph-Pad software, Inc., US, Mac Version 6) was used to make the graph and to perform the statistical analyses.
The GSK TCAMS compounds dilutions were prepared in DMSO and the final concentration of DMSO in the assay was 0.5%. Inhibition of pbGST by the GSK TCAMS compounds were determined by adding variable concentration of compounds (1, 10 and 50 μM) with a fixed P. berghei protein extracts concentration (0.65 mg/mL) in a total volume of 200 μL containing 1 mM CDNB and 100 mM potassium phosphate buffer (pH 6.5) at 25° C. The reaction was started by adding 1 mM GSH and activity was measured spectroscopically at 340 nm absorbance. The data obtained by varying compound concentration was analyzed using a column bar graph. Inhibition of pbGST by the GSK TCAMS compounds was done in duplicate. One GSK TCAMS compound, TCMDC-124132, was analyzed against the hGST in two independent experiments in triplicate (n=6). A statistical analysis was done using the GraphPad Prism software (Graph-Pad software, Inc., US, Mac Version 6). […]

Test [2] relates to P. berghei blood stages. The conditions noted are these: read-out: EC50, published results; published value; cited from earlier work.
Test [3] concerns the target T1, human placenta GST (hGST) (Homo sapiens, UniProt P09211).
T1 construct: the human placenta GST from Sigma-Aldrich® (Cat No. G8642); purchased Sigma-Aldrich G8642; host or cells: human placenta (tissue-derived)
Description: Inhibition of GST activity (CDNB/GSH, 340 nm) of human placenta GST. The class given is biochemical. The method, then: Glutathione S-transferase Activity in Blood Stage Parasites: The parasite extracts were prepared as the method described in the Protein for Enzymatic Activity. The enzymatic activity was determined spectroscopically using the chromogenic substrate 1-chloro-2,4-dinitrobenzene (CDNB) from Sigma-Aldrich®. The GST activity was assayed at 25° C. in P. berghei protein extracts by monitoring the increase in absorbance at 340 nm on the basis of the extinction coefficient for the product S-(2,4-dinitrophenyl) glutathione (ε340 nm=9.6 mM^−1 cm^−1). The absorbance was measured in a 96-well plate (UV flat bottom Microtiter®, from Thermo Scientific) using the SpectraMax® M3 Microplate Reader (Molecular Devices). […]
The compounds stock solutions were prepared in 100% DMSO. […] The half maximal inhibitory concentration (IC50) values were calculated using the non-linear regression function for sigmoidal dose-response (variable slope). Inhibition curves of pbGST was done in two independent experiments with one replicate each (n=2) whereas the inhibition curves of hGST was determined in three independent experiments in triplicate (n=9). […]
The GSK TCAMS compounds dilutions were prepared in DMSO and the final concentration of DMSO in the assay was 0.5%. […] The reaction was started by adding 1 mM GSH and activity was measured spectroscopically at 340 nm absorbance. […]

Setting [4] is: ring stage to mature schizont development, 24 hours, luciferase readout, three independent experiments.

Molecules are shown by their SMILES. Read-outs that look alike come from different tables or passages of the source.

P. berghei GST (pbGST), sequence (A0A509AJX5 entry or part of it): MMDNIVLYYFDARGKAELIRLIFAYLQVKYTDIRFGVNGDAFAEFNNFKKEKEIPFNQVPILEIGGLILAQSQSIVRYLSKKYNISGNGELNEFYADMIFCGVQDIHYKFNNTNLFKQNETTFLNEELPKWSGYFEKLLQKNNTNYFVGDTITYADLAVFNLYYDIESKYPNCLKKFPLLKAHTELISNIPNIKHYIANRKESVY
T1 sequence (P09211 2-210 limits assumed): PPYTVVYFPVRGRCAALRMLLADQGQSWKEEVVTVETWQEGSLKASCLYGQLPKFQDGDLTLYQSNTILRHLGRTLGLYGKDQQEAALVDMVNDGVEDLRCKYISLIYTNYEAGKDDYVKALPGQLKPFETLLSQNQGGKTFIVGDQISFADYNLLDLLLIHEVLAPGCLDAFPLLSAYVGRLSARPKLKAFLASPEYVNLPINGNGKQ

Regarding `Oc1ccc(CCNc2nc(NCc3ccccc3-c3ccc(C(F)(F)F)cc3)nc(N3CCNCC3)n2)cc1` [Compound 12], the EC50 (commonly the concentration at which the effect is half-maximal) in the test on P. berghei blood stages [1] (setting [4]) stood at 3.03 µM.
Take `COc1cc(/C=C/C(=O)CC(=O)/C=C/c2ccc(O)c(OC)c2)ccc1O` [curcumin, reference compound]: the EC50 in the test with P. berghei blood stages [1] (Plasmodium berghei, 24 h) was found to be 15 µM.
In the case of `C=C(CC)C(=O)c1ccc(OCC(=O)O)c(Cl)c1Cl` [ethacrynic acid, reference compound], in the test with P. berghei blood stages [1] (Plasmodium berghei, ring stage to mature schizont development, 24 hours, luciferase readout, three independent experiments), the EC50 was 14.7 µM.
Turning to `COc1ccc2nccc([C@@H](O)CN3CCC(NC(=O)c4cc5c(F)cc(F)cc5[nH]4)CC3)c2n1` [Compound 6], the EC50 in the test on P. berghei blood stages [1] (setting [4]) came to 1.48 µM. Further, the “inhibitory activity on pbGST” value on P. berghei GST (pbGST) is reported as “No inhibitory activity”.
Take `CCN(CC)CCCC(C)Nc1ccnc2cc(Cl)ccc12` (centres unmarked) [Chloroquine]: the EC50 with P. berghei blood stages [2] is 0.02 µM.
For `O=C1Nc2cccc3c2C1(CCCCN1CCC(c2cc4ccncc4[nH]2)CC1)CCC3` (centres unmarked) [TCMDC-141151/TCMDC-141221], the EC50 with P. berghei blood stages [1] (setting [4]) turned out to be 1.04 µM. In addition, the “inhibitory activity on pbGST” value against P. berghei GST (pbGST) is on record as “No inhibitory activity”.
As for `c1ccc2[nH]c(CN(Cc3nc4ccccc4[nH]3)Cc3nc4ccccc4[nH]3)nc2c1` [Compound 8], the “inhibitory activity on human placenta GST” value in test [3] (at 50 μM and 100 μM, statistical difference at 100 μM, n=6) is given as “tendency of inhibition”. For the same compound, the 50% effective concentration (EC50) in the test with P. berghei blood stages [1] (setting [4]) was 1.15 µM. In addition, the “inhibitory activity on pbGST” value on P. berghei GST (pbGST) is recorded as “tendency of inhibition”.
Regarding `CCCCCCSC[C@H](NC(=O)CC[C@H](N)C(=O)O)C(=O)NCC(=O)O` [S-hexylglutathione, reference compound], the inhibition at 50 µM (in test [3] (50 μM compound); against P. berghei GST (pbGST) (50 μM compound)) was 50% in each case. For the same compound, the EC50 in the test on P. berghei blood stages [1] (Plasmodium berghei, 24 h) amounted to 6.86 µM.

The values are drawn from patent publication US10744119B1, “Inhibitors of the malarial GST” (University of Puerto Rico, priority 2014, dated 2020).
